# Legend:
# phosphorylated JNK [1] = assay: Stress signaling activity (JNK phosphorylation) in liver tissue of acetaminophen treated mouse model; assay type: in vivo; conditions: acetaminophen 500 mg/kg orally, TNP 10 mg/kg intraperitoneal, 6 hours later, FIG. 12
# Procedure: (§1) To investigate the preventing effect of TNP on the acetaminophen caused liver toxicity in the animal model of Example 7, tissues, blood, and JNK phosphorylation were analyzed.
# (§2) Particularly, acetaminophen and TNP were injected to the male mouse by the same manner as described in Example 7. 6 hours later, the liver was extracted from the mouse, followed by histopathological analysis, blood analysis (AST and ALT), and stress signaling activity (JNK) analysis. For the blood analysis, a blood sample was obtained from orbit of the mouse. The blood sample was centrifuged at 13,000 rpm for 10 minutes to obtain serum. AST and ALT analysis was performed (Idexx VetTest 8008 chemistry analyzer) with 100 μl of the serum obtained above. To investigate the stress signaling activity, the liver tissues extracted from the liver taken out above were loaded in RIPA medium (1 M tris-Cl (PH7.4), 1 M NaCl, 0.5 M EDTA, NP-40, 10% sodium deoxycholate, 10% SDS), followed by lysis with a homogenizer. After the centrifugation, the supernatant was collected, followed by SDS-PAGE and Western blotting. The phosphorylated JNK and the total JNK were quantified by Western blotting by the same manner as described in Example 5.
# male C57BL/6J mouse [2] = assay: Liver toxicity in acetaminophen treated mouse model: histopathological analysis and blood analysis (AST and ALT); assay type: in vivo; conditions: acetaminophen 500 mg/kg orally, TNP 10 mg/kg intraperitoneal, 6 hours later
# Procedure: as §1, §2
# [3] = system: mouse derived liver cells; assay: Acetaminophen caused apoptosis (cell survival rate) in mouse derived liver cells; assay type: cell-based; conditions: acetaminophen 25 mM together with TNP 100 μM, 18 hours, FIG. 3
# From the text: Particularly, the male C57BL/6J mouse at 10˜12 weeks was anesthetized by administrating Avertin via intraperitoneal injection, and the abdomen was opened. 24 gauge catheter was inserted in the portal vein to perfuse with a perfusion solution (1.42 M Nacl, 0.067 M Kcl, 0.1 M HEPES PH 7.4, 0.05 M EGTA). Then, a digestion solution comprising collagenase (Worthington, USA) was circulated. After the liver cells were digested, the mesenteric membrane was peeled off to separate liver cells, followed by filtering with nylon mesh. The filtrate was centrifuged at 100×g for 3 minutes. The supernatant was discarded and the precipitated liver cells were suspended in HBSS buffer (Hanks' Balanced salt solution, WelGene), followed by centrifugation. The precipitated liver cells were centrifuged at 2400 rpm for 10 minutes in Percol solution (autoclaved percoll (Sigma), 10×PBS, 1 M HEPES pH 7.4). The supernatant was discarded and the precipitated liver cells were suspended in HBSS buffer (Hanks' Balanced salt solution, WelGene), followed by centrifugation again at 100×g. […]
# Particularly, the mouse derived liver cells were distributed in a 6 well plate at the concentration of 100% each well. The cell survival rate was calculated by the same manner as described in Experimental Example 1. […] The maximum limits of significance were determined as p<0.05.
# [4] = system: human hepatoma cell line HepG2; assay: Acetaminophen caused apoptosis (cell survival rate) in human hepatoma cell line HepG2; assay type: cell-based; conditions: acetaminophen 25 mM together with TNP 100 μM, 18 hours, FIGS. 4 and 5
# Procedure: The human hepatoma cell line HepG2 was distributed in a 6 well plate precoated with gelatin at the density of 1×10^6 cells/ml, followed by culture for 24 hours for cell adhesion. The culture medium herein was DMEM (Biowest) supplemented with 10% FBS, 10 nM dexamethasone, 10 nM insulin, and penicillin/streptomycin (100 μg/ml). The cells were cultured in a 37° C. incubator under the control of temperature and humidity with supplying a mixed gas containing CO2 by 5%.
# The changes in acetaminophen caused apoptosis according to the treatment of TNP were investigated in the human hepatoma cell line HepG2 cultured by the same manner as described in Example 3.
# Particularly, the human hepatoma cell line HepG2 was distributed in a 6 well plate at the concentration of 90% each well. The cell survival rate was calculated by the same manner as described in Experimental Example 1. All the statistic treatments in this invention were presented as mean±SD and the statistic analysis was performed by using Student's t-test. The maximum limits of significance were determined as p<0.05.
# phosphorylated JNK [5] = assay: JNK phosphorylation (Western blotting) in mouse derived liver cells; assay type: cell-based; conditions: acetaminophen together with TNP, FIG. 7
# Procedure: (§3) The regulation of response against stress caused by acetaminophen in liver cells according to the treatment of TNP was investigated.
# Particularly, the mouse derived liver cells treated with acetaminophen and TNP by the same manner as described in Experimental Example 2 were obtained. Cell extract was prepared for protein assay. Then, SDS-PAGE and Western blotting were performed. The cells were lysed in 10 ml of SDS buffer (50 mM Tris-HCl, 1% IGEPAL CA-630, 0.25% deoxycholic acid, 150 mM NaCl, 1 mM ethylene-diamine tetra acetic acid, 1 mM NaF, and 0.1% sodium dodecyl sulfate, pH 7.4) containing protease inhibitor cocktail (Complete Mini, Roche, Germany). The cell lysate was placed in ice for 20 minutes, followed by centrifugation at 4° C., at 13000 rpm, for 10 minutes. Upon completion of the centrifugation, the protein in the supernatant was quantified (Bio-Rad Laboratories, USA). 50 μg of the protein was loaded for SDS-PAGE (SDS-polyacrylamide gel electrophoresis). The electrophoresed protein was transferred onto Immobilon-P transfer membrane (Millipore Corporate, USA) by using electroblotting. The membrane was then loaded in TBS (Tris-buffered saline) containing 0.1% Tween 20 and 10% milk powder, followed by blocking for 1 hour. […] The activity was analyzed by using Image J software (version 1.37, NIH, USA).
# male C57BL/6J mouse [6] = assay: Individual survival rate in acetaminophen treated mouse model; assay type: in vivo; conditions: acetaminophen 500 mg/kg orally, then TNP 10 mg/kg intraperitoneal, FIG. 9
# Procedure: The inventors investigated whether or not TNP had the activity of protecting liver cells from the toxicity caused by acetaminophen in an animal model.
# Particularly, the male C57BL/6J mouse at 8˜10 weeks was orally administered with 500 mg/kg of acetaminophen (Sigma) dissolved in water. Then, the mouse was administered with 10 mg/kg of TNP (Calbiocham) dissolved in olive oil (Sigma) via intraperitoneal injection, followed by investigation of individual survival rate. Statistical analysis was performed by Kaplan-Meier survival analysis, and the maximum limit of the significance was determined as p<0.05.
# [7] = system: human embryonic stem cell-derived liver cells; assay: Acetaminophen caused apoptosis (cell survival rate, trypan blue) in human embryonic stem cell-derived liver cells; assay type: cell-based; conditions: hESC-derived liver cells; acetaminophen 25 mM together with TNP 100 μM, 18 hours; FIG. 2
# Procedure: Particularly, CHA-hESC cell line was cultured in the conditioned medium with feeder-free system for 3 days to be confluent. Upon completion of the culture, the hESC cells were cultured in RPMI-1640 (Hyclone, USA) supplemented with 50 ng/ml of Activin A (Peprotech, USA) for 5 days to induce the differentiation. The differentiated cells were cultured in the hepatocyte culture medium (HCM; Lonza, USA) supplemented with 30 ng/ml of fibroblast growth factor 4 (Peprotech) and 20 ng/ml of bone morphogenetic protein 2 (BMP2; Peprotech) for 5 days. Then, the cells were further cultured in the hepatocyte culture medium supplemented with 20 ng/ml of hepatocyte growth factor (HGF; Peprotech) for another 5 days to induce the differentiation of hESC into hepatocytes. The differentiated hepatocytes were cultured in the hepatocyte culture medium supplemented with 10 ng/ml of oncostatin M (R&D Systems, USA) and 0.1 μM of dexamethasone (Sigma) for 5 days to induce maturation of the hepatocytes. At last, the mature hepatocytes were obtained. […]
# Particularly, the liver cells on the 19th day from the differentiation from human stem cells were distributed in a 6 well plate at the concentration of 90% each well. […] This experiment was performed in triplicate and the cell survival rate was analyzed based on the results. […] The maximum limits of significance were determined as p<0.05.
# [8] = system: reduced glutathione (GSH) in mouse derived liver cells; assay: Intracellular reduced glutathione (GSH) level, GSH-Glo Glutathione Assay, in mouse derived liver cells; assay type: cell-based; conditions: FIG. 6
# Procedure: The metabolizing activity of liver cells on acetaminophen according to the treatment of TNP was investigated.
# Particularly, the level of the reduced glutathione (GSH) in the mouse derived liver cells treated with acetaminophen and TNP by the same manner as described in Experimental Example 2 was measured. The measurement of the reduced glutathione was performed by using GSH-Glo Glutathione Assay kit (Promega) with Tristar2 LB 942 plate reader.
# phosphorylated JNK [9] = assay: JNK phosphorylation (Western blotting) in human hepatoma cell line HepG2; assay type: cell-based; conditions: acetaminophen together with TNP, FIG. 8
# Procedure: as §3
# Particularly, the human hepatoma cell line HepG2 treated with acetaminophen and TNP by the same manner as described in Experimental Example 3 was obtained. Cell extract was prepared for protein assay. Then, SDS-PAGE and Western blotting were performed by the same manner as described in Experimental Example 5.
structure (smiles),measurement,setting,value
"O=[N+]([O-])c1ccc(CNc2nc(NCc3cccc(C(F)(F)F)c3)nc3[nH]cnc23)cc1 [TNP, N2-(m-Trifluorobenzyl), N6-(p-nitrobenzyl)purine]",increase of phosphorylated JNK signal in liver tissue,phosphorylated JNK [1],significantly suppressed
same,level of ALT (liver toxicity serum index),"male C57BL/6J mouse [2]; mouse serum, FIG. 11",significantly decreased
same,level of AST (liver toxicity serum index),"male C57BL/6J mouse [2]; mouse serum, FIG. 11",significantly decreased
same,necrosis in liver tissue (histopathological analysis),"male C57BL/6J mouse [2]; mouse, FIG. 10",only minor necrosis
same,apoptosis of liver cells caused by acetaminophen,[3],significantly suppressed
same,apoptosis of liver cells caused by acetaminophen,[4],significantly suppressed
same,phosphorylated JNK signal increased by the acetaminophen caused stress response,phosphorylated JNK [5],significantly suppressed
same,individual survival rate,male C57BL/6J mouse [6],effect of protecting a mouse from the acetaminophen caused liver toxicity
same,apoptosis of liver cells caused by acetaminophen,[7],significantly suppressed
same,decrease of the reduced glutathione caused by acetaminophen,[8]; acetaminophen together with TNP,back to increase
same,reduced glutathione concentration in the liver cells,[8]; treatment of TNP alone,increased
same,phosphorylated JNK signal increased by the acetaminophen caused stress response,phosphorylated JNK [9],significantly suppressed
